Results taken from US20260256771A1, “GALUNISERTIB FOR USE IN THE TREATMENT OF ANDROGENIC ALOPECIA” (SAÚDE VIÁVEL, S.A., priority 2022, published 2026).

What was measured:
p-SMAD2 = assay: Immunohistochemistry of cryo-sectioned HFOCs: p-SMAD2; assay type: cell-based, human
Excerpt: (§1) Hair growth percentages is normalized to day 0.
FIG. 4. Galunisertib inhibits TGFβ2 paracrine signaling in the bulb epithelial compartment. a) Representative Immunohistochemistry (IHC) images of tissue sections of HFOCs untreated and treated with Galunisertib as indicated and stained for TGFβ2 and p-SMAD2. In the upper left frame is exemplified how the dermal papilla (DP) and adjacent bulb epithelial compartment (HB) regions were delineated for quantitative analyses shown in b-e. Nuclei were counterstained with DAPI. Scale bar, 100 μm. b-e) Adjusted intensity levels of TGFβ2 and p-SMAD2 per DP and HB areas as measured in tissue sections from untreated and Galunisertib-treated HFOCs. Values are mean±SD of HFOCs established from n=4 donors (n>9 HFs per condition). ns p≥0.05, *p≤0.05 by unpaired t-test.
(§2) For immunohistochemistry, 2-day HFOCs are used for immunohistochemistry analysis. Briefly, HFs were embedded on a drop of OCT and stored at −80° C. 8 μm cryosections are air-dried and fixed in 4% PFA (for TGFβ2, cleavage Caspase 3, p-SMAD2 and KI67 immunostainings) or cold acetone (for LEF1 and β-catenin immunostaining). Following 2×5 min rinse with PBS, microsections are permeabilized 2× for 10 min with PBS+0.3% Triton X 100 (PBS-T) and then blocked with PBS+10% fetal bovine serum (FBS) for 1 hour at room temperature. […]

[1] = system: phosphorylated SMAD2 (p-SMAD2); assay: Western blot of phospho-SMAD2 in hair bulbs of HFOCs; assay type: cell-based, human; conditions: HFOCs treated with DHT or DHT+galunisertib for 72 h
Protocol: For western blot, hair bulbs are dissected from HFOCs treated with DMSO, DHT and Galunisertib for 72 h. Upon rinse in PBS, hair bulbs are lysed in Laemmli buffer (without bromophenol blue) with Halt Protease Inhibitor Cocktail and Halt Phosphatase Inhibitor Cocktail, and lysates are sonicated. Lysates from 10 hair bulbs are used for each condition tested. Total extracts are then loaded in SDS-polyacrylamide gels and transferred onto nitrocellulose membranes for western blot analysis. Membranes are blocked during 1 h with TBS+5% BSA. Primary and secondary antibodies are diluted in TBS+2% BSA accordingly to Supplementary Table 1. Signal is detected using Clarity Western ECL Substrate reagent. A GS-800 calibrated densitometer with Quantity One 1-D Analysis Software 4.6 (Bio-Rad Laboratories) is used for quantitative analysis of protein levels.
In addition, only anagen hair follicles are used.
as §1

[2] = system: Ki67 proliferation marker; assay: Ki67 immunohistochemistry of mouse dorsal skin (hair germ); assay type: in vivo
Protocol: (§3) FIG. 8. Galunisertib increases anagenic hair follicle growth. a) Hematoxilin-eosin staining of transversal paraffin sections of the dorsal skin of mice treated with vehicle (control), galunisertib (10 μM and 100 μM) or minoxidil at days 0, 5, 7, 14, 16 and 18 of treatment. Scale bar, 500 μm. b) Number of hair follicles per field view and c) number of hair follicles per field view in the subcutaneous layer at different timepoints along the experiment. d) Ki67 immunostaining of longitudinal paraffin sections of the dorsal skin of mice treated with vehicle (control), galunisertib (10 μM and 100 μM) or minoxidil at days 5, 7 and 14. Scale bar, 200 μm. e) Number of Ki67-positive cells in the hair bulb at days 5, 7 and 14. N≥3 animals per timepoint per condition were analyzed, and N≥4 field views were quantified per animal. Values are mean±SD. *p<0.05; **p<0.01 by Student's t-test.
For histology and immunohistochemistry, dorsal skin from the depilated region is collected from mice at different timepoints across the experiment (days 0, 5, 7, 14 and 18) and fixed in 10% buffered formalin, imbedded in paraffin and sectioned along the transversal and longitudinal plan of the hair follicles (3 μm sections). Standard protocol is used for hematoxylin and eosin staining. […]

β-catenin = assay: Immunohistochemistry of cryo-sectioned HFOCs: β-catenin; assay type: cell-based, human; conditions: DP adjacent epithelial compartment; Galunisertib 48 h vs untreated
Excerpt: as §1
FIG. 6. Galunisertib improves the WNT signaling in the bulb epithelial compartment. a) Representative IHC images of tissue sections of HFOCs with and without Galunisertib and stained for LEF1 (red) and β-catenin (green). Nuclei were counterstained with DAPI (blue). Scale bar, 100 μm. b,e) Adjusted intensity levels of LEF1 and β-catenin per DP and HB (bulb epithelium) areas, as measured in tissue sections from HFOCs with and without Galunisertib. All values are mean±SD of HFOCs established from n=4 donors (n>8 HFs per condition). ns p≥0.05, *p≤0.05 by unpaired t-test.
as §2, with “temperature. Antibodies are diluted in PBS-T+1% FBS and incubation done overnight at 4° C.” for “temperature.”

[3] = system: C57BL/6 depilated male mice; assay: Histology (hematoxylin-eosin) of dorsal skin: number of hair follicles; assay type: in vivo, mouse
Protocol: as §3
For histology and immunohistochemistry, dorsal skin from the depilated region is collected from mice at different timepoints across the experiment (days 0, 5, 7, 14 and 18) and fixed in 10% buffered formalin, imbedded in paraffin and sectioned along the transversal and longitudinal plan of the hair follicles (3 μm sections). Standard protocol is used for hematoxylin and eosin staining. For immunohistochemistry, slides are deparaffinized, then antigen retrieval is performed using HistoVT One (#06380-05, Nacalai Tesque Inc.) for 40 min in a steamer, following 20 min of cooling at room temperature (RT). After washing with TBS-0.01% Tween (TBS-T), peroxidase is blocked using Bloxall (#SP-6000, Vector Laboratories Inc.) for 10 min. Slides are then washed with TBS-T, and blocked using 2.5% Normal Horse Serum (#MP7500, Impress universal kit, Vector Laboratories Inc.) for 20 min. Following this, slides are incubated with rabbit anti-Ki67 antibody (D3B5) in 0.25% Normal Horse Serum overnight at 4° C. Next day, after thoroughly washing with TBS-T, the slides are incubated with a secondary anti-mouse/anti-rabbit antibody (#MP7500, Impress universal kit, Vector Laboratories Inc.) for 45 min RT. Impact DAB (#SK-4105, Vector Laboratories Inc.) are used to develop the slides, followed by dehydration and mounting with Entellan (#1.07961.0100, Millipore) following standard procedures.

Cc1cccc(-c2nn3c(c2-c2ccnc4ccc(C(N)=O)cc24)CCC3)n1 [Galunisertib]
p-SMAD2 fluorescence intensity levels at the bulb epithelial compartment (p-SMAD2; bulb epithelial compartment surrounding the DP, Galunisertib 48 h vs untreated): decreased levels
p-SMAD2 in DP (fluorescence intensity) (p-SMAD2; dermal papilla, HFOCs with or without Galunisertib for 48 h): not significantly reduced
canonical TGFβ signaling activation (phospho-SMAD2 protein levels) [1]: blocks TGFβ activation
Ki67-positive cells in the hair germ, comparison with minoxidil ([2]; day 7): more effective than minoxidil
number of Ki67-positive cells in the hair germ ([2]; days 5, 7 and 14 post-treatment, vs vehicle treatment): increased number of Ki67-positive cells
β-catenin intensity levels (β-catenin): significantly enhances
number of HFs within the subcutaneous layer (anagenic HFs) ([3]; day 5, vs vehicle): increased number of HFs
number of anagenic HFs ([3]; day 5 to day 14): increased number of anagenic HFs
catagen onset in mice ([3]; similar timing in all conditions): not to be delayed
anagenic hair growth (overall) ([3]; similarly to minoxidil, but more efficiently): improves anagenic hair growth
number of HF (per field view) ([3]; transversal HF sections, day 7 to day 14, vs control vehicle treatment): significant increase in the number of HF
persistence of the increased number of anagenic HFs ([3]; until day 14): perdures until day 14
